Test [1] deals with Substance-P receptor (Cavia porcellus, UniProt P30547). Nature of the test: Tested for inhibition of contractile effects of Tachykinin receptor 1 in guinea pig ileum preparation. The format is functional, tissue-based. The settings on record: read-out: pA2 (converted).
Test [2] deals with Substance-P receptor (Rattus norvegicus, UniProt P14600). Nature of the test: Tested for binding affinity towards Tachykinin receptor 1 by using [3H]SP binding assay in rat brain membranes. Format: cell membranes.
Sequence of Substance-P receptor (Rattus norvegicus, UniProt P14600) (P14600 whole entry): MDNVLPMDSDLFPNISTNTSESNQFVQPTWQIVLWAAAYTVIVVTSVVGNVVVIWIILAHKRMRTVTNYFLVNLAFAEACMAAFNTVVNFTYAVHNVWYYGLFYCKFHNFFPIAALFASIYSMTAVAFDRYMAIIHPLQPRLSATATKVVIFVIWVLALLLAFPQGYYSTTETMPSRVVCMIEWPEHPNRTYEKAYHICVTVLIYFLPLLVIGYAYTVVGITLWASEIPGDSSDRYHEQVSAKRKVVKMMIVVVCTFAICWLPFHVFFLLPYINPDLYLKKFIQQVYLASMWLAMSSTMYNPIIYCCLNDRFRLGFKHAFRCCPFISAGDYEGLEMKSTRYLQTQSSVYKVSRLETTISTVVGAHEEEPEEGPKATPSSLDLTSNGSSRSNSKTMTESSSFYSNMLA

Sequence of Substance-P receptor (Cavia porcellus, UniProt P30547) (P30547 whole entry): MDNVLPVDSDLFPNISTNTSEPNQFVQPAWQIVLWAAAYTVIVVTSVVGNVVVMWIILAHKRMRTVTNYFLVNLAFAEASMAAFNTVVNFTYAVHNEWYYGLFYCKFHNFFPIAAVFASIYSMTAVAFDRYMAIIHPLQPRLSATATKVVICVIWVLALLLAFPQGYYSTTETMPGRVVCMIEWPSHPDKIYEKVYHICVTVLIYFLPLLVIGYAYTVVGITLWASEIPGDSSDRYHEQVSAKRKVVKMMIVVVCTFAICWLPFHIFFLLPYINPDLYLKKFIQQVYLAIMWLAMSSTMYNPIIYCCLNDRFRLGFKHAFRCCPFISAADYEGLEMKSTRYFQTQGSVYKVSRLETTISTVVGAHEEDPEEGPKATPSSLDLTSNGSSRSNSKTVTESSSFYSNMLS

`COc1ccccc1CC(=N)N1C[C@@H]2C(=O)CCC(c3ccccc3)(c3ccccc3)[C@@H]2C1`: the Kb at Substance-P receptor [1] is 63.1 nM. On Substance-P receptor [2], this molecule gave a Ki of 4.16 nM.

(Values after ChEMBL document CHEMBL1126330, “Synthesis of RP-67,580, a new potent nonpeptide substance P antagonist” (Bioorg Med Chem Lett, 1992).)
